pIC50: −log10 of the molar value.
Each compound was assayed against Indoleamine 2,3-dioxygenase 1 (Homo sapiens, UniProt P14902) (assay: Inhibitory Activity Assay: IDO1 (His-tag) enzyme(BPS Bioscience), L-tryptophan (Sigma), methylene blue (Sigma), Catalase originated from the liver of cattle (Sigma), L-ascorbic acid (Sigma), glycerol (Sigma), potassium dihydrogen phosphate solution (Sigma), Tween 20 (Sigma), automatic sampling platformLiquid handler (Bravo & Echo), microplate ReaderSpectraMax M5e (Molecular Devices). Test Method of Compounds: The Compounds are Determined by Absorbance Test Method:The tested compounds are dissolved in DMSO to prepare a high concentration of storage solution. The stock solution of reference compound was diluted with DMSO to prepare a 100× solution. In the first column of the working plate, 8 μL above tested compounds and 8 μL 100× reference compound were respectively added as the highest concentration, and then the highest concentrations were subjected to three times dilution to obtain 11 concentrations and prepare 100× solution. 0.5 μL solution was transferred from the above plate to the detection plate. To each well was added 0.5 μL 100× compound solution. For HPE and ZPE control wells, 0.5 μL 100% DMSO was added. 25 μL 2×IDO1 (His-tag) enzyme solution (containing L-ascorbic acid, methylene blue, and catalase) was added to each well. 25 μL reaction solution without IDO1 (His-tag) enzyme was added into HPE control well. The test plate was centrifugated at 1000 rpm for 1 minute to mix well. Then, the test plate was incubated at room temperature for 30 minutes. 25 μL above 2× substrate (L-tryptophan) solution was added to each well. The test plate was centrifugated at 1000 rpm for 1 minute to mix well. The detection plate was placed on ELISA (SpectraMax M5e), the temperature was set at 25° C., and the absorbance (OD value) was measured at 320 nm every 10 minutes till 60 minutes.<p id="p-0313" num="0311">Calculating the increase ratio of absorbance: the slope of the absorbance increase curve from 10 min to 60 min is derived from SpectralMax M5e. […]).
Chain of Indoleamine 2,3-dioxygenase 1 (P14902 whole entry): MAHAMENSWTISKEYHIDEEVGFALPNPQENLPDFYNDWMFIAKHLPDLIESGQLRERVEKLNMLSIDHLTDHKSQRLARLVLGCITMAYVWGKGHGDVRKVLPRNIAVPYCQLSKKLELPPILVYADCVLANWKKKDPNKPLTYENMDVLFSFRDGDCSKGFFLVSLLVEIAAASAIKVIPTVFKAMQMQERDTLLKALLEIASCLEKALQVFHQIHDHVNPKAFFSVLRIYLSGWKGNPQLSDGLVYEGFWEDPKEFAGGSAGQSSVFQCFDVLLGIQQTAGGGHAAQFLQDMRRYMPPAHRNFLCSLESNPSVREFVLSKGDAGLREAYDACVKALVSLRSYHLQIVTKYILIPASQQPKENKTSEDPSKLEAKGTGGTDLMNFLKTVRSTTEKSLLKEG

Compared with `CC(C)NS(=O)(=O)CCCNc1nonc1/C(=N/O)Nc1ccc(F)c(Br)c1`, `CNS(=O)(=O)CCCNc1nonc1/C(=N/O)Nc1ccc(F)c(Br)c1` is 0.76 log units higher in pIC50: 6.55 for the first, 7.31 for the second.

For `CCNS(=O)(=O)CCCNc1nonc1C(=NO)Nc1ccc(F)c(Br)c1`, the pIC50 was 6.76.

Source: ChEMBL document CHEMBL5729609, “Indoleamine-2,3-dioxygenase inhibitor, preparation method therefor and use thereof” (2023)
